Data on 14 compounds can be found in patent EP3478687B1 (Daewoong Pharmaceutical Co., Ltd., priority 2016, dated 2018).

As usually defined, the IC50 is the concentration at which inhibition is half-maximal.

Assay [1] addresses T1, Recombinant purified human BTK (Homo sapiens, UniProt Q06187).
T1 construct: purchased Promega V9071
Briefly: BTK kinase inhibitory activity, ADP-Glo kinase assay (Promega V9071). In kind it is biochemical. Conditions: ATP 10 uM, 8 ng BTK per reaction, 1 hour 30 °C, chemiluminescence. An outline of the steps:
(§1)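 IC50 values come from ADP-Glo luminescence after 1 h kinase reactions at 30 °C in 1% DMSO on 0.2 µg/µL Poly(Glu4,Tyr1) substrate. ATP was 10 µM for BTK (8 ng, buffer containing MnCl2) and 5 µM for JAK3 (4 ng), in Tris-Cl pH 7.5/MgCl2/BSA/DTT.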
(In general: ADP-Glo first removes unused ATP, then detects ADP through luciferase.)

Assay [2] deals with T2, Recombinant purified human JAK3 (Homo sapiens, UniProt P52333).
T2 construct: purchased Promega V9441
T2 sequence (P52333 1-1124): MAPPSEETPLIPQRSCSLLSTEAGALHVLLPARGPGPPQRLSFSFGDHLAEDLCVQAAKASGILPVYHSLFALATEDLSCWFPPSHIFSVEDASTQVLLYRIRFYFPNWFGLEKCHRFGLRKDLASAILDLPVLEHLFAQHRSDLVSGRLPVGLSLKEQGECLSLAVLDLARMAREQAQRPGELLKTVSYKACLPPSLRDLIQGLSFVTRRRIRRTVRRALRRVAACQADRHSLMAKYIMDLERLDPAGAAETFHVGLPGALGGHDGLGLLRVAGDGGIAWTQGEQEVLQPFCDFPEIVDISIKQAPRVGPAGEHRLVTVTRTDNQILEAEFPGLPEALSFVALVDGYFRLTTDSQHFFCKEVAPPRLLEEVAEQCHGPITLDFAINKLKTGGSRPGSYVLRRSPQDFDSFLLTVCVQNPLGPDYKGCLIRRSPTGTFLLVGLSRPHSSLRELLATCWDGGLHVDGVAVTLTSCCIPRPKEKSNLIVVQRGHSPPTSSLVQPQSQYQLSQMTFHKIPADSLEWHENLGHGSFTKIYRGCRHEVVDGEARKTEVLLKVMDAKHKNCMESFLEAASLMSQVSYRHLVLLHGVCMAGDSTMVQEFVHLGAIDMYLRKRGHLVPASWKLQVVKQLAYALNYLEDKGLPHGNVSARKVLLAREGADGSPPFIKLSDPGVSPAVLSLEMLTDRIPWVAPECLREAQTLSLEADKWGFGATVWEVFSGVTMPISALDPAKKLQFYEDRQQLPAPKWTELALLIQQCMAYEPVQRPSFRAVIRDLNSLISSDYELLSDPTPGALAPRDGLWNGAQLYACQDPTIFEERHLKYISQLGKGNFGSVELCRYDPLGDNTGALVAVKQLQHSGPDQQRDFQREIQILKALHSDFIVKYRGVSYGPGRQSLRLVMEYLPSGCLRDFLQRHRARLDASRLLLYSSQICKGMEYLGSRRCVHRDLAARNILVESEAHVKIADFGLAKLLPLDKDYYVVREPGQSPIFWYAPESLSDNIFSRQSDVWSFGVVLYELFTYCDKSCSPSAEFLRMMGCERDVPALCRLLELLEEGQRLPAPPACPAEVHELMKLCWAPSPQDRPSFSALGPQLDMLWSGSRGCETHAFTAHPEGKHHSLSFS
Briefly: JAK3 kinase inhibitory activity, ADP-Glo kinase assay (Promega V9441). In kind it is biochemical. Conditions: ATP 5 uM, 4 ng JAK3 per reaction, 1 hour 30 °C, chemiluminescence. In outline: as §1

T1 sequence (Q06187 whole entry): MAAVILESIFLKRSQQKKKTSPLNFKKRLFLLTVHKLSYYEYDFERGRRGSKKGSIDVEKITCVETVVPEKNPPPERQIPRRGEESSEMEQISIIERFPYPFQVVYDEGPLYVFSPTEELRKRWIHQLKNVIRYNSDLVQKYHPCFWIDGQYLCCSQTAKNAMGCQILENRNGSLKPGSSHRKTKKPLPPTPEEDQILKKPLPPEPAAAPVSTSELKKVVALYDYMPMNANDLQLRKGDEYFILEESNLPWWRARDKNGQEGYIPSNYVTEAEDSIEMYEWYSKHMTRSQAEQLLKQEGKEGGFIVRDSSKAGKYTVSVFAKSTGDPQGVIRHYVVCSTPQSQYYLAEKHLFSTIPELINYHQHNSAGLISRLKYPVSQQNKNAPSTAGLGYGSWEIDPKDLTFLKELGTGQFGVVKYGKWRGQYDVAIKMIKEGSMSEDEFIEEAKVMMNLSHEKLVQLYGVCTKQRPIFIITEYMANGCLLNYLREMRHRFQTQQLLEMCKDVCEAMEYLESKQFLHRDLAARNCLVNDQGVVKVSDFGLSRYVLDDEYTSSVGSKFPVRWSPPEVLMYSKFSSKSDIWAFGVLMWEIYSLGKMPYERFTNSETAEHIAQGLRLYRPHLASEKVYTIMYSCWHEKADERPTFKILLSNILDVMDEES

In the case of `CCn1cc(Nc2nc(S[C@@H]3CCCN(C(=O)/C(C#N)=C/C(C)C)C3)c3c(Cl)c[nH]c3n2)cn1` [Example 180, (R,E)-2-(3-((5-chloro-2-((1-ethyl-1H-pyrazol-4-yl)amino)-7H-pyrrolo[2,3-d]pyrimidin-4-yl)thio)piperidine-1-carbonyl)-4-methylpent-2-enenitrile], the results for the concentration for half-maximal inhibition (IC50) in assay [1] and in assay [2] were 3.1 nM and 1.5 nM, respectively.

Regarding `CCn1cc(Nc2nc(S[C@@H]3CCCN(C(=O)/C(C#N)=C/C4CC4)C3)c3c(Cl)n[nH]c3n2)cn1` [Example 181], the concentration for half-maximal inhibition (IC50) was found to be 2.2 nM in assay [1] and 30.2 nM in assay [2].

On to `CCn1cc(Nc2nc(N[C@@H]3CCCN(C(=O)/C(C#N)=C/C4CC4)C3)c3c(F)c[nH]c3n2)cn1` [Example 182], for which the IC50 in assay [1] worked out at 2.1 nM; in assay [2], 2.3 nM.

`CCn1cc(Nc2nc(N[C@H]3CN(C(=O)CCl)CC[C@H]3C)c3c(Cl)n[nH]c3n2)cn1` [Example 183, 2-chloro-1-((3R,4R)-3-((3-chloro-6-((1-ethyl-1H-pyrazol-4-yl)amino)-1H-pyrazolo [3,4-d]pyrimidin-4-yl)amino)-4-methylpiperidin-1-yl)ethan-1-one]: the IC50 in assay [1] turned out to be 1.6 nM; in assay [2], 0.8 nM.

As for `C=CC(=O)N1CCC[C@@H](Nc2nc(Nc3cnn(CC(F)F)c3)nc3[nH]nc(C)c23)C1` [Example 184, (R)-1-(3-((6-((1-(2,2-difluoroethyl)-1H-pyrazol-4-yl)amino)-3-methyl-1H-pyrazolo[3,4-d]pyrimidin-4-yl)amino)piperidin-1-yl)prop-2-en-1-one], the 50% inhibitory concentration (IC50) was determined as 1.4 nM in assay [1] and 4.4 nM in assay [2].

Take `C=CC(=O)N1CCC[C@@H](Nc2nc(Nc3cnn(CC)c3)nc3[nH]nc(C)c23)C1` [Example 185, (R)-1-(3-((6-((1-ethyl-1H-pyrazol-4-yl)amino)-3-methyl-1H-pyrazolo [3,4-d]pyrimidin-4-yl)amino)piperidin-1-yl)prop-2-en-1-one]: the IC50 in assay [1] was determined as 2.1 nM; in assay [2], 15.1 nM.

Consider `C=CC(=O)N1CCC[C@@H](Nc2nc(Nc3cnn(CC(C)C)c3)nc3[nH]nc(C)c23)C1` [Example 186, (R)-1-(3-((6-((1-isobutyl-1H-pyrazol-4-yl)amino)-3-methyl-1H-pyrazolo [3,4-d]pyrimidin-4-yl)amino)piperidin-1-yl)prop-2-en-1-one], for which the figures for the IC50 in assay [1] and in assay [2] were 1.6 nM and 18 nM, respectively.

For `C=CC(=O)N1CCC[C@@H](Nc2nc(Nc3cnn(C(C)(C)C)c3)nc3[nH]nc(C)c23)C1` [Example 187, (R)-1-(3-((6-((1-(tert-butyl)-1H-pyrazol-4-yl)amino)-3-methyl-1H-pyrazolo [3,4-d]pyrimidin-4-yl)amino)piperidin-1-yl)prop-2-en-1-one], the IC50 in assay [1] amounted to 1.8 nM; in assay [2], 14.6 nM.

As for `C=CC(=O)N1CCC[C@@H](Nc2nc(Nc3cnn(C4CC4)c3)nc3[nH]nc(C)c23)C1` [Example 188, (R)-1-(3-((6-((1-cyclopropyl-1H-pyrazol-4-yl)amino)-3-methyl-1H-pyrazolo[3,4-d]pyrimidin-4-yl)amino)piperidin-1-yl)prop-2-en-1-one], the IC50 was found to be 2.9 nM in assay [1] and 23.5 nM in assay [2].

`C=CC(=O)N1CCC[C@@H](Nc2nc(Nc3cnn(CC)c3)nc3[nH]nc(SC)c23)C1` [Example 189, (R)-1-(3-((6-((1-ethyl-1H-pyrazol-4-yl)amino)-3-(methylthio)-1H-pyrazolo [3,4-d]pyrimidin-4-yl)amino)piperidin-1-yl)prop-2-en-1-one]: the half-inhibitory concentration (IC50) in assay [1] is 0.721 nM; in assay [2], 3.4 nM.

For the compound `C=CC(=O)N1CCC[C@@H](Nc2nc(Nc3cnn(CC(F)F)c3)nc3[nH]nc(SC)c23)C1` [Example 190, (R)-1-(3-((6-((1-(2,2-difluoroethyl)-1H-pyrazol-4-yl)amino)-3-(methylthio)-1H-pyrazolo[3,4-d]pyrimidin-4-yl)amino)piperidin-1-yl)prop-2-en-1-one], the concentration for half-maximal inhibition (IC50) in assay [1] was 0.76 nM; in assay [2] it was 2 nM.

In the case of `C=CC(=O)N1CCC[C@@H](Nc2nc(Nc3cnn(C)c3)nc3[nH]nc(SC)c23)C1` [Example 191, (R)-1-(3-((6-((1-methyl-1H-pyrazol-4-yl)amino)-3-(methylthio)-1H-pyrazolo [3,4-d]pyrimidin-4-yl)amino)piperidin-1-yl)prop-2-en-1-one], the IC50 in assay [1] stood at 0.76 nM; in assay [2], 4.2 nM.

As for `C=CC(=O)N1CCC[C@@H](Nc2nc(Nc3cnn(C(C)(C)C)c3)nc3[nH]nc(SC)c23)C1` [Example 192, (R)-1-(3-((6-((1-(tert-butyl)-1H-pyrazol-4-yl)amino)-3-(methylthio)-1H-pyrazolo [3,4-d]pyrimidin-4-yl)amino)piperidin-1-yl)prop-2-en-1-one], the figures for the 50% inhibitory concentration (IC50) in assay [1] and in assay [2] were 0.726 nM and 3 nM, respectively.

As to `C=CC(=O)N1CC[C@@H](F)[C@@H](Nc2nc(Nc3cnn(CC)c3)nc3[nH]nc(Cl)c23)C1` [Example 193, 1-((3S,4R)-3-((3-chloro-6-((1-ethyl-1H-pyrazol-4-yl)amino)-1H-pyrazolo[3,4-d]pyrimidin-4-yl)amino)-4-fluoropiperidin-1-yl)prop-2-en-1-one], the IC50 in assay [1] was found to be 0.9 nM; in assay [2], 0.5 nM.
